The text below walks through data of patent US20240102994A1, “Method to Evaluate the Capability of Compounds on the Trapping of Proteins” (Eisbach Bio GmbH, priority 2020, published 2024).

One assay addresses T1, GFP-PARP2 (Homo sapiens, UniProt Q9UGN5).
T1 construct: expressed in transfected cells; host or cells: U2OS
In words: Live-cell protein trapping assay: GFP-PARP2 at laser micro-irradiation sites. The assay is classed as cell-based. The conditions noted are these: U2OS cells. The source says:
The disclosed method is used to analyze protein trapping induced by compounds. Live-cell imaging allows monitoring of the accumulation of at least one protein, e.g. which is detectably labelled, e.g. fluorophore-tagged, at the induced DNA lesions over time. Time0 (t0) hereby describes the timepoint before induction of DNA damage by irradiation. Thus, the relative enrichment of the at least one protein at DNA lesions within the imaged time frame (from t0 to tEND) can be quantified. This allows to the analysis of the recruitment and retention (protein trapping) kinetics of the at least one protein, e.g. which is detectably labelled, e.g. fluorophore-tagged, at DNA lesions. Suitably, as a first step the accumulation and/or residence time of a protein, e.g. which is detectably labelled, e.g. fluorophore-tagged, is measured in the absence of a test compound (control). The optimal imaging time is hereby determined by the time in which the majority of the protein has released from the damage site, indicated by the decrease of signal, e.g. fluorescent signal, at the DNA lesion (see FIG. 2A). Subsequently, the accumulation and/or residence time of the protein, e.g. which is detectably labelled, e.g. fluorophore-tagged, may be determined in the presence of at least one test compound. […] Using this method, we examined the trapping of GFP-tagged ALC1 in the presence of ALCi-1 compared to a DMSO control.
Eukaryotic cells were seeded onto 4/8-well Nunc Lab-Tek chambers (Thermo Fisher Scientific) in the corresponding cell culture medium, cultured over night at 37° C. and transfected with fluorophore-tagged protein plasmids using XtremeGENE HP DNA transfection reagent (Sigma). […]
The drug- and control-master-mixes were prepared in Leibovitz's L-15 media (+10% FBS). […] Therefore, the optimal imaging time for the protein of interest was determined by investigation of the trapping and release under control conditions (no treatment). […] Subsequently, the fluorophore-tagged protein was measured in the presence of at least one compound. […]

A further assay addresses PARP1-GFP (Homo sapiens, UniProt P09874). The conditions noted are these: wild-type U2OS cells, 10 μM for 1 h, 355 nm laser, 30 minutes, compared to DMSO. The source says: The disclosed method is used to analyze protein trapping induced by compounds. Live-cell imaging allows monitoring of the accumulation of at least one protein, e.g. which is detectably labelled, e.g. fluorophore-tagged, at the induced DNA lesions over time. Time0 (t0) hereby describes the timepoint before induction of DNA damage by irradiation. Thus, the relative enrichment of the at least one protein at DNA lesions within the imaged time frame (from t0 to tEND) can be quantified. This allows to the analysis of the recruitment and retention (protein trapping) kinetics of the at least one protein, e.g. which is detectably labelled, e.g. fluorophore-tagged, at DNA lesions. Suitably, as a first step the accumulation and/or residence time of a protein, e.g. which is detectably labelled, e.g. fluorophore-tagged, is measured in the absence of a test compound (control). The optimal imaging time is hereby determined by the time in which the majority of the protein has released from the damage site, indicated by the decrease of signal, e.g. fluorescent signal, at the DNA lesion (see FIG. 2A). Subsequently, the accumulation and/or residence time of the protein, e.g. which is detectably labelled, e.g. fluorophore-tagged, may be determined in the presence of at least one test compound. […]

Each structure is given as a SMILES string. Entries after “also recorded” stand apart in the source; their conditions may differ.

T1 sequence (Q9UGN5 whole entry): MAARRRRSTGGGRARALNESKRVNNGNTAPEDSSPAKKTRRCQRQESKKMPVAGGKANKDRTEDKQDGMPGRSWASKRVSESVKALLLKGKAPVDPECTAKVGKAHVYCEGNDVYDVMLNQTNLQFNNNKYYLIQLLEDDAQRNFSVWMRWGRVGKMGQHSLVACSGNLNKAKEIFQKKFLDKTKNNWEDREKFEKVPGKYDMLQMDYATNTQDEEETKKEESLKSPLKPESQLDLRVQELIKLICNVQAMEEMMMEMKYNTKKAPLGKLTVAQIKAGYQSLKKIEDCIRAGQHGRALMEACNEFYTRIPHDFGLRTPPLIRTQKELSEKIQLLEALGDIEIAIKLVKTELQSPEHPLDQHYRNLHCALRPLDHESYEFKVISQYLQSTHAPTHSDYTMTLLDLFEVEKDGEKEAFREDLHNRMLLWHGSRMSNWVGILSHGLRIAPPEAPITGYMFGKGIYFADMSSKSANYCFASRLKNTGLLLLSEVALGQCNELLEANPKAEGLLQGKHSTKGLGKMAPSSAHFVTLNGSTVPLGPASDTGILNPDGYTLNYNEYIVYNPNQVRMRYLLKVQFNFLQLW
PARP1-GFP, sequence (P09874 whole entry): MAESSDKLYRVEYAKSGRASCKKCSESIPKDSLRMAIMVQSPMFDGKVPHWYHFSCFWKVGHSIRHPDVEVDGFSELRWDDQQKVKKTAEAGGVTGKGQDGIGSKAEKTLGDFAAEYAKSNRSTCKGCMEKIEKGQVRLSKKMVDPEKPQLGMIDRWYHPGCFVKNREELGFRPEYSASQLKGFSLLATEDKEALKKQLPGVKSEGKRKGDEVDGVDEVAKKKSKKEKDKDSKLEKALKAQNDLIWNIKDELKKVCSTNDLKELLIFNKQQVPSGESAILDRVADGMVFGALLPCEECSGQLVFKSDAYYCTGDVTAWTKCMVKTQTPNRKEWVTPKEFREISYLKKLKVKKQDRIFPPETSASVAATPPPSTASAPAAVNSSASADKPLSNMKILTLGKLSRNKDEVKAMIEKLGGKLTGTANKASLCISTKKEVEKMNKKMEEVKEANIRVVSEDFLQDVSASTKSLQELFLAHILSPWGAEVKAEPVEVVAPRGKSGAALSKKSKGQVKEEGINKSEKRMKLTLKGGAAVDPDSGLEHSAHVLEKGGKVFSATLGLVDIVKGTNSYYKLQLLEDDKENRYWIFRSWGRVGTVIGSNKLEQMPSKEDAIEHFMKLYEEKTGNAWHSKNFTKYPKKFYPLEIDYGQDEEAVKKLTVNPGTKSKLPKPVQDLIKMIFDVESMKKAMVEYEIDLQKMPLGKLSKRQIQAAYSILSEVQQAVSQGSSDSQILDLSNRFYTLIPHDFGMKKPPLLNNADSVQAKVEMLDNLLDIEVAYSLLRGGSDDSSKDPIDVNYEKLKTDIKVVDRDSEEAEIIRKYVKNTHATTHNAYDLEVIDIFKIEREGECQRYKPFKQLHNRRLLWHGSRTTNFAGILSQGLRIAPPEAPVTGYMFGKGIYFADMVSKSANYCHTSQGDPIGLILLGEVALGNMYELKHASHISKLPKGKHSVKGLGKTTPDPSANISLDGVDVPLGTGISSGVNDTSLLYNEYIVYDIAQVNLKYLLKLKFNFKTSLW

Turning to `Cn1ncnc1[C@H]1c2n[nH]c(=O)c3cc(F)cc(c23)N[C@@H]1c1ccc(F)cc1` [talazoparib], the “retention of PARP2 at induced damage sites (PARP trapping)” value at GFP-PARP2 (talazoparib 100 nM, 10% 355 nm laser, 15 minutes, vs absence of PARPi) is reported as “enhanced retention of PARP2”.

Take `C[C@]1(c2nc3c(C(N)=O)cccc3[nH]2)CCCN1` [veliparib]: the “recruitment of PARP2 to the damage site” value on GFP-PARP2 (veliparib 10 μM, 10% 355 nm laser, 15 minutes, vs absence of PARPi) was “less recruitment of PARP2; also recorded: overall less PARP2 recruitment”. In addition, at GFP-PARP2 (veliparib, compared to DMSO-only control), the “PARP2 trapping at DNA lesions” value was “only weak trapping”. Also, on PARP1-GFP, the “retention of PARP1 at DNA damage sites (PARP1-trapping)” value was “enhanced retention of PARP1”.
